From patent publication US10358453B2, “Antiviral compounds” (priority 2015, dated 2019)
Read-outs that look alike come from different tables or passages of the source.

Tests used:
[1] = Cytotoxicity determination (CCK-8, without addition of virus); assay type: cell-based; conditions: human, HEp-2 cells (uninfected), no virus, Table C = greater than 100 μM, Table D = equal to or less than 100 μM and greater than 10 μM
Description: CPE reduction assays are performed as described by Sidwell and Huffman et al., Appl. Microbiol. (1971) 22(5):797-801 with slight modifications. HEp-2 cells (ATCC#, CCL-23) are seeded at a density of 1,500 cells/30 μL/well into the 384-well cell plate(s) (Corning#3701) one day prior to the assay. Compounds are added into 384-well cell plates by Labcyte POD 810 Plate Assembler system. Each of the test compounds is provided to duplicate wells of a 384-well cell plate at final concentrations starting from 100 μM or 1 μM using 1/3 stepwise dilutions for 9 points. Quick-thaw Respiratory Syncytial Virus (RSV) long strain (ATCC#VR-26) stock in a 37° C. water bath. Place on ice until ready to use. Viruses are diluted to the concentration of 100 TCID50/30 μL with medium and 30 μl diluted RSV are added into related wells of 384-well cell plates. For each plate, sixteen wells are set aside as uninfected, untreated cell controls (CC), and nine wells per test plate receive virus only as a control for virus replication (VC). The final DMSO concentration of all wells is 1%. Place the plates at 37° C., 5% CO2 for 5 days.
In order to determine the compound cytotoxicity, in parallel, each of the compounds is applied to duplicate wells in a 384-well cell plate at serial final concentrations starting from 100 μM using ½ stepwise dilutions for 7 points without addition of virus. Incubate the cells at 37° C., 5% CO2 for 5 days. Add 6 μL CCK-8 into each well and incubate in a CO2 incubator at 37° C. for 3-4 h. Read the plates to obtain the optical densities which are used to calculate 50% cytotoxicity concentration (CC50).

recombinant RSV complex = recombinant RSV complex (Human respiratory syncytial virus A, UniProt P28887); assay: RSV polymerase inhibition assay; assay type: biochemical; conditions: 2 h at 30° C., Table E = <1 μM, Table F = <50 μM
Description: Standard RSV polymerase assays were conducted in the presence of 10 nM recombinant RSV complex in a reaction buffer containing Tris-HCl pH7.5, 6 mM MgCl2, and other additives and substrates including RNA oligonucleotides and radionucleotides. Standard reactions were incubated in 96-well plate format for 2 h at 30° C., in the presence of increasing concentration of inhibitor. The reaction was stopped with 90 μL of 0.1M EDTA, and the reaction product was transferred to a “reading” 96-well plate. After washing of the plate, radiolabeled RNA products were detected according to standard procedures with a Trilux Topcount scintillation counter. The compound concentration at which the enzyme-catalyzed rate was reduced by 50% (IC50) was calculated by fitting the data to a non-linear regression (sigmoidal).

[2] = system: RSV subgenomic replicon 395 HeLa and APC126; assay: RSV subgenomic replicon assay (Renilla luciferase); assay type: cell-based; conditions: human respiratory syncytial virus; RSV replicon cells (395 HeLa 7 days or APC126 3 days); Table G = less than 1 μM, Table H = equal to or higher than 1 μM and less than 50 μM
Excerpt: The RSV subgenomic replicon 395 HeLa and APC126 were licensed from Apath (Brooklyn, N.Y.) and were originally developed by Dr. Mark Meeples of Center for Vaccines & Immunity, the Research Institute at Nationwide Children's Hospital in Columbus, Ohio. To generate subgenomic RSV replicon, three glycoprotein genes, those for SH, G, and F, from a full-length recombinant GFP-expressing (rg) RSV antigenomic cDNA were deleted. In their place, a blasticidin S deaminase (bsd) gene was inserted. Through multiple steps, the RSV replicon was established in HeLa cells (395 Hela) or BHK cells (APC126). Both 395 HeLa and APC126 cells were cultured in Dulbecco's Modified Eagle Medium (DMEM) containing 4500 mg/L D-glucose, L-glutamine, and 110 mg/L sodium pyruvate (Invitrogen, Cat. #11995-040). The medium was further supplemented with 10% (v/v) fetal bovine serum (FBS) (Mediatech, Cat. #35-010-CV), 1% (v/v) penicillin/streptomycin (Mediatech, Cat. #30-002-CI), and 10 μg/mL of Blasticidin (BSD) (Invivogen, Cat. code ant-bl-1). Cells were maintained at 37° C. in a humidified 5% CO2 atmosphere.
Determination of 50% inhibitory concentration (EC50), 90% inhibitory concentration (EC90) and 50% cytotoxic concentration (CC50) in RSV replicon cells were performed by the following procedure. On the first day, 5000 RSV replicon cells per well were plated in a 96-well plate. On the following day, compounds to be tested were solubilized in 100% DMSO to 100X the desired final testing concentration. Each compound was serially diluted (1:3) up to 9 distinct concentrations. Compounds in 100% DMSO were reduced to 10% (v/v) DMSO by diluting 1:10 in cell culture media. A 10 μL sample of the compounds diluted to 10% (v/v) DMSO with cell culture media was used to treat the RSV replicon cells in 96-well format. The final DMSO concentration was 1% (v/v). Cells were incubated with compounds for 7 days (for 395Hela) or 3 days (for APC126) at 37° C. in a 5% CO2 atmosphere. In each assay, positive control that was previously characterized in the RSV replicon assay was included.
The Renilla Luciferase Assay System (Promega, Cat. #E2820) was used to measure anti-RSV replicon activity. Assay plates were set up as stated above. Luminescence was recorded using a Perkin Elmer multilabel counter Victor3V. EC50, the concentration of the drug required for reducing RSV replicon RNA by 50% in relation to the untreated cell control value, was calculated from the plot of percentage reductions of the […] against the drug concentrations using the Microsoft Excel forecast function.

[3] = 10 nM recombinant RSV complex, read-out: IC50

Sequence of recombinant RSV complex (P28887 whole entry): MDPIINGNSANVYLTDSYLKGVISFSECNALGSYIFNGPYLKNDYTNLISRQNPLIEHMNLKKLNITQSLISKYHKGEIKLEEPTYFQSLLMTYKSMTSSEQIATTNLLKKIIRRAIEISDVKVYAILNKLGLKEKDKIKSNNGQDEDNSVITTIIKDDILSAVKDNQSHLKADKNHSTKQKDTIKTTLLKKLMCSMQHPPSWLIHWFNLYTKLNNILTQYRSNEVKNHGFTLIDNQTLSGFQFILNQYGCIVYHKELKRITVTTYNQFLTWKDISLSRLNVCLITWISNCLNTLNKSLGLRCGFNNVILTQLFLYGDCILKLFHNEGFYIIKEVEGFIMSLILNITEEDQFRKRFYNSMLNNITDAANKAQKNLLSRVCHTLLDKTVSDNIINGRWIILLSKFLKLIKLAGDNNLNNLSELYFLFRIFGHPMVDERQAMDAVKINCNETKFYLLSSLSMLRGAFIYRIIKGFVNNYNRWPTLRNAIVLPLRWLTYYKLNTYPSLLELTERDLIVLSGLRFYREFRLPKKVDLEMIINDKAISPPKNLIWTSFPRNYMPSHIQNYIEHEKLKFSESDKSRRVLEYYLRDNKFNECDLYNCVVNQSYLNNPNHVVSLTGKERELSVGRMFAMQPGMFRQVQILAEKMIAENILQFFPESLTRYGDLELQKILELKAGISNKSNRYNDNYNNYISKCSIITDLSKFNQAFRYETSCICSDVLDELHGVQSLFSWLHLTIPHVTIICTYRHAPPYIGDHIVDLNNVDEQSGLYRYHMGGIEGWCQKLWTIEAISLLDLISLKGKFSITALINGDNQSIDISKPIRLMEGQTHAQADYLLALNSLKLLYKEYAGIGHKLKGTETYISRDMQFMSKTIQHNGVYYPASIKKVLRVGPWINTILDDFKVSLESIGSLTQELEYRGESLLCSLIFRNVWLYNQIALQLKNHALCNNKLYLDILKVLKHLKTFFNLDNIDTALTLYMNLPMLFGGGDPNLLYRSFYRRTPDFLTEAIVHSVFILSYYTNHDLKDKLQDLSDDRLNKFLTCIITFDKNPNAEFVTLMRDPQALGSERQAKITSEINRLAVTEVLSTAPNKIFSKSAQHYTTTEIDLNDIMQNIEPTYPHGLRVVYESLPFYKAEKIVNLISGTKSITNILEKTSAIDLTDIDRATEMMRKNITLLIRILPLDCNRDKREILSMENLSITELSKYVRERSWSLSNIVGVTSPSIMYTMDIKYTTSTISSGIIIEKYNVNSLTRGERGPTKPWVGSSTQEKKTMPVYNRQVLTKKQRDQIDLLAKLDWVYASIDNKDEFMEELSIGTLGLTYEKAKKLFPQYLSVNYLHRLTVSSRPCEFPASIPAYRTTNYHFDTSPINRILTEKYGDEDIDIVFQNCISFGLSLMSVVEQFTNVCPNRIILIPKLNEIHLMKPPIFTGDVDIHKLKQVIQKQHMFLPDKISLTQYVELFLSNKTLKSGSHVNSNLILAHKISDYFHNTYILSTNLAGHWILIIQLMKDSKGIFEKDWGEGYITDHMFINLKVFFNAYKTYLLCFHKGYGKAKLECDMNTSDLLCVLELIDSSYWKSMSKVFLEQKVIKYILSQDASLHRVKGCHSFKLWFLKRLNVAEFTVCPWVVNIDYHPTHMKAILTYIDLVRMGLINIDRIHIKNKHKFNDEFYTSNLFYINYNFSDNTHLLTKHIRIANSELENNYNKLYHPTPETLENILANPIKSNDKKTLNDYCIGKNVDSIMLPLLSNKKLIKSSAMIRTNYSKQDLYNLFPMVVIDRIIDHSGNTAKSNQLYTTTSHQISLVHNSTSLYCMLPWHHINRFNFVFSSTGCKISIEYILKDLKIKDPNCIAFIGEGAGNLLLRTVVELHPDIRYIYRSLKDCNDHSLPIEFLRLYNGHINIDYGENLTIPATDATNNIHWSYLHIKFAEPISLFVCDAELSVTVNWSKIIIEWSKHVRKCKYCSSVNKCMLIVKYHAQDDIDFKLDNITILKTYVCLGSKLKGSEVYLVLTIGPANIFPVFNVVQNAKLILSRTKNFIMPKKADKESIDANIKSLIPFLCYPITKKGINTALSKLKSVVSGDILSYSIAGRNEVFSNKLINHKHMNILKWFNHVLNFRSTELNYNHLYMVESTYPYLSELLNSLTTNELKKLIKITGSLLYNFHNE
Sequence of recombinant RSV complex (P03421 whole entry, further chain): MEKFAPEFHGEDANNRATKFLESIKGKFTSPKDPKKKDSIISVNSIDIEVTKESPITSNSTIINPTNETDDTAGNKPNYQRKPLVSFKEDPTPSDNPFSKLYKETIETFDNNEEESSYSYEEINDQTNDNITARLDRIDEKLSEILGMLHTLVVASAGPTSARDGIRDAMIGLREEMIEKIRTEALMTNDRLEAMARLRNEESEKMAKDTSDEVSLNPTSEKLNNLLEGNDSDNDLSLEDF

Structure (SMILES) | CC50 at 5 days [1] | IC50 (recombinant RSV complex; [3]) | EC50 [2] | IC50 (recombinant RSV complex; IC50, 10 nM recombinant RSV complex)
COc1cc(C(=O)NC[C@@](O)(c2cc3c(c(-c4ccc(F)cc4)n2)OC[C@]3(N)C2CC2)C(F)(F)F)ccc1OC[C@@H](C)O (single isomer, unassigned) [Compound 106] | 10 to 100 µM | < 1 µM | < 1 µM | 
COc1cc(C(=O)NC[C@](O)(c2cc3c(c(-c4ccc(F)cc4)n2)OC[C@]3(N)C2CC2)C(F)(F)F)ccc1OC[C@@H](C)O (single isomer, unassigned) [Compound 107] | 10 to 100 µM | < 50 µM | 1 to 50 µM | 
COc1cc(C(=O)NCC(O)(c2cc3c(c(-c4ccc(F)cc4)n2)OCC3(C)N)C(F)(F)F)cc2c1NC(=O)CC2 (stereo not drawn) [Compound 11] | 10 to 100 µM | < 1 µM | < 1 µM | 
COc1cc(C(=O)NCC(O)(c2cc(C(C)CCN)cc(-c3ccc(F)cc3)n2)C(F)(F)F)ccc1OCCO (stereo not drawn) [Compound 13] | 10 to 100 µM | < 1 µM | < 1 µM | 
C[C@@]1(N)COc2c1cc(C(O)(CNC(=O)c1ccc3[nH]ccc3c1)C(F)(F)F)nc2-c1ccc(F)cc1 (stereo partly drawn) [Compound 16] | 10 to 100 µM | < 1 µM | < 1 µM | 
COc1cc(C(=O)NCC(O)(c2cc(C3CCNCC3)cc(-c3ccc(F)cc3)n2)C(F)(F)F)ccc1OCCO (stereo not drawn) [Compound 18] | 10 to 100 µM | < 1 µM | < 1 µM | 
COc1cc(C(=O)NC[C@@](O)(c2cc3c(c(-c4ccc(F)cc4)n2)OC[C@@]3(C)N)C(F)(F)F)ccc1-c1nc(C)no1 [Compound 19] | 10 to 100 µM | < 1 µM | < 1 µM | 
COc1cnc(C(=O)NCC(O)(c2cc3c(c(-c4ccc(F)cc4)n2)OCC3(C)N)C(F)(F)F)cc1OC (stereo not drawn) [Compound 20] | 10 to 100 µM | < 1 µM | < 1 µM | 
COc1cc(C(=O)NCC(O)(c2cc3c(c(-c4ccc(F)cc4)n2)OCC3(C)N)C(F)(F)F)ccc1OC(C)CO (stereo not drawn) [Compound 21] | 10 to 100 µM | < 1 µM | < 1 µM | 
CC1(N)COc2c1cc(C(O)(CNC(=O)c1ccc(CO)c(OC3CC3)c1)C(F)(F)F)nc2-c1ccc(F)cc1 (stereo not drawn) [Compound 22] | 10 to 100 µM | < 1 µM | < 1 µM | 
COc1ccc(C(=O)NCC(O)(c2cc3c(c(-c4ccc(F)cc4)n2)OCC3(C)N)C(F)(F)F)cc1OC1CC1 (stereo not drawn) [Compound 23] | 10 to 100 µM | < 1 µM | < 1 µM | 
CC1(N)COc2c1cc(C(O)(CNC(=O)c1ccc(OCCO)c(OC3CC3)c1)C(F)(F)F)nc2-c1ccc(F)cc1 (stereo not drawn) [Compound 24] | 10 to 100 µM | < 1 µM | < 1 µM | 
COc1cc(C(=O)NCC(O)(c2cc3c(c(-c4ccncc4)n2)OCC3(C)N)C(F)(F)F)ccc1OCCO (stereo not drawn) [Compound 26] | > 100 µM | < 50 µM | 1 to 50 µM | 
COc1cc(C(=O)NCC(O)(c2cc3c(c(-c4ccc(F)cc4)n2)OCC3(C)N)C(F)(F)F)ccc1NCCO (stereo not drawn) [Compound 30] | 10 to 100 µM | < 1 µM | < 1 µM | 
COc1cc(C(=O)NCC(O)(c2cc3c(c(-c4ccc(F)cc4)n2)OCC3(C)N)C(F)(F)F)ccc1NC1CC1 (stereo not drawn) [Compound 31] | 10 to 100 µM | < 1 µM | < 1 µM | 
CC(C)(N)c1cc(-c2ccc(F)cc2)nc(C(O)(CNC(=O)c2ccc(OCCO)c(OC3CC3)c2)C(F)(F)F)c1 (stereo not drawn) [Compound 34] | 10 to 100 µM | < 1 µM | < 1 µM | 
CC(C)(N)c1cc(-c2ccc(F)cc2)nc(C(O)(CNC(=O)c2ccc(OC3CC3)c(OCCO)c2)C(F)(F)F)c1 (stereo not drawn) [Compound 36] | 10 to 100 µM | < 1 µM | < 1 µM | 
COc1ccc(C(=O)NCC(O)(c2cc(C(C)(C)N)cc(-c3ccc(F)cc3)n2)C(F)(F)F)cc1OCCO (stereo not drawn) [Compound 37] | > 100 µM | < 1 µM | < 1 µM | 
C[C@@H](O)COc1cc(C(=O)NCC(O)(c2cc(C(C)(C)N)cc(-c3ccc(F)cc3)n2)C(F)(F)F)ccc1OC1CC1 (stereo partly drawn) [Compound 38] | 10 to 100 µM |  | < 1 µM | < 1 µM
COc1ccc(C(=O)NCC(O)(c2cc(C(C)(C)N)cc(-c3ccc(F)cc3)n2)C(F)(F)F)cc1OC[C@@H](C)O (stereo partly drawn) [Compound 39] | 10 to 100 µM | < 1 µM | < 1 µM | 
COc1cc(C(=O)NCC(N)(c2cc(C(C)(C)N)cc(-c3ccc(F)cc3)n2)C(F)(F)F)ccc1OCCO (stereo not drawn) [Compound 40] | > 100 µM | < 1 µM | < 1 µM | 
CC(C)(N)c1cc(-c2ccc(F)cc2)nc(C(N)(CNC(=O)c2ccc(OC3CC3)c(OCCO)c2)C(F)(F)F)c1 (stereo not drawn) [Compound 41] | 10 to 100 µM | < 1 µM | < 1 µM | 
COc1cc(C(=O)NCC(O)(c2cc3c(c(-c4ccc(F)cc4)n2)OCC3(C)N)C(F)(F)F)cc2c1NC(=O)NC2 (stereo not drawn) [Compound 43] | 10 to 100 µM | < 1 µM | 1 to 50 µM | 
COc1cc(C(=S)NCC(O)(c2cc3c(c(-c4ccc(F)cc4)n2)OCC3(C)N)C(F)(F)F)ccc1OCCO (stereo not drawn) [Compound 44] | 10 to 100 µM | < 1 µM | < 1 µM | 
COc1nc(C(=O)NCC(O)(c2cc3c(c(-c4ccc(F)cc4)n2)OCC3(C)N)C(F)(F)F)cc2c1NC(=O)C2 (stereo not drawn) [Compound 47] | 10 to 100 µM | < 1 µM | < 1 µM | 
CC1(N)COc2c1cc(C(O)(CNC(=O)c1ccc(CCO)c(OC3CC3)c1)C(F)(F)F)nc2-c1ccc(F)cc1 (stereo not drawn) [Compound 49] | 10 to 100 µM | < 1 µM | < 1 µM | 
C[C@@]1(N)COc2c1cc([C@](O)(CNC(=O)c1ccc(OCCO)c(OC3CC3)c1)C(F)(F)F)nc2-c1ccc(F)cc1 [Compound 55] | 10 to 100 µM | < 1 µM | < 1 µM | 
CC(C)(N)c1cc(-c2ccc(F)cc2)nc([C@@](O)(CNC(=O)c2ccc(OCCO)c(OC3CC3)c2)C(F)(F)F)c1 [Compound 57] | 10 to 100 µM | < 1 µM | < 1 µM | 
CC(C)(N)c1cc(-c2ccc(F)cc2)nc([C@@](O)(CNC(=O)c2ccc(OC3CC3)c(OCCO)c2)C(F)(F)F)c1 [Compound 59] | 10 to 100 µM | < 1 µM | < 1 µM | 
